{"source": "patent US11666608B2", "about": "(priority 2020, dated 2023)", "tested_on": "neutrophils isolated from peripheral blood", "assay": "Neutrophil activation by E. coli EVs, neutrophil elastase secretion (ELISA)", "assay_type": "cell-based", "conditions": "human neutrophils treated with E. coli EVs and test substance 24 hours, FIG. 8", "experimental": "Specifically, 10 mL of blood was collected in a tube containing an ACD solution, the blood was carefully added over 20 mL of Lymphoprep and centrifuged. After centrifugation, a red blood layer was collected and mixed with 12 mL of dextran, followed by standing at room temperature for 45 minutes. After layer separation, 40 mL of 1×HBSS was added to the supernatant and centrifuged again, and red blood cells were removed with autoclaved Millipore water, and then neutrophils were isolated using a neutrophil isolation kit (MACS). […] As a positive control drug, dexamethasone (Dex) was treated.", "data": [{"compound": "C[C@@H]1C[C@H]2[C@@H]3CCC4=CC(=O)C=C[C@]4(C)[C@@]3(F)[C@@H](O)C[C@]2(C)[C@@]1(O)C(=O)CO", "note": "[dexamethasone]", "values": [{"measurement": "secretion of NE (neutrophil elastase), neutrophil activation indicator", "value": "did not inhibit"}]}]}
